Assay results reported in patent publication US11612606B2, “8-aminoisoquinoline compounds and uses thereof” (priority 2018, dated 2023).
Read-outs that look alike come from different tables or passages of the source.

Experiments:
[1] = system: primary human pan T cells; assay: Human T-cell IL2 induction assay; format: cell-based
Method: Assay Principle: Anti-CD3 and anti-CD28 activates TCR signaling in primary human pan T cells leading to IL-2 promoter induction. Secreted IL-2 in cell culture supernatant is detected by electrochemiluminescence using a capture antibody against IL-2 and an anti-IL-2 antibody labeled with SULFO-tag. Also see www.mesoscale.com for additional electrochemiluminescence technology information.
Assay Procedure: Incubate primary human pan T cells with varying concentrations of test compounds for 30 minutes in a humidified incubator at 37° C. and 5% CO2. Transfer cells to a plate pre-coated with a fixed concentration of anti-human CD3 (determined separately for each donor lot) and add soluble anti-human CD28 (final concentration=1 μg/ml). Stimulate cells in a humidified incubator at 37° C. and 5% CO2 for 4 hours. Transfer 25 μl of supernatant to a MSD single spot plate pre-coated with an anti-human IL-2 antibody. Incubate MSD plate overnight at 4° C. with gentle shaking. Wash MSD plate 4× with wash buffer. Add SULFO-tagged detection antibody at a 1:50 dilution and incubate at room temperature shaking for 2 hours. Wash MSD plate 4× with wash buffer and add 150 μl 2×MSD read buffer. Read on an MSD instrument. Normalize data to stimulated/untreated controls to calculate % activity at each concentration of compound.
Instrumentation: • Biomek FX for liquid handling (Beckman Coulter) • MSD SECTOR S 600 (Meso Scale Discovery)
Exemplary compounds of Formula (I) were tested in the human T-cell IL-2 induction assays.

gMDCKI cell line = assay: Permeability assay in gMDCKI cells; format: in vitro ADME, canine; conditions: apical-to-basolateral, 10 μM, 2-hour incubation
Method: (§1) Cell permeability of compounds of interest was assessed in the gMDCKI cell line, which is a modified MDCKI (Madin-Darby canine kidney) originally acquired from American Type Culture Collection (Manassa, Va.) and generated at Genentech. […] Test article was tested at 10 μM in the apical-to-basolateral (A-B) and basolateral-to-apical (B-A) directions. Test compound was dissolved in transport buffer consisting of Hank's balanced salt solution and […] (Invitrogen Corporation, Grand Island, N.Y.). Transepithelial electrical resistance (TEER) and lucifer yellow (LY) permeability were used to monitor monolayer integrity at the beginning and the end of the experiments, respectively. Test articles were analyzed by LC-MS/MS.
(§2) The efflux ratio (ER) is calculated as (Papp, B−A/Papp, A−B).
(§3) Cell permeability were assessed for exemplary compounds of Formula (I).

[2] = system: Cryopreserved human hepatocytes; assay: Hepatocyte stability assay; format: in vitro ADME; conditions: 1 μM, scaled hepatic clearance
Method: (§4) Metabolic stability of compounds are assessed using a hepatocyte stability assay. Cryopreserved human hepatocytes from a 10 donor pool are quickly thawed at 37° C., suspended in prewarmed In VitroGRO™ HT Medium, and then centrifuged at 100×g at room temperature for 10 min. The supernatants are discarded, and cells are resuspended in 5 mL Dulbecco's Modified Eagle Medium (DMEM) medium. Cell viability in suspension is counted on a Hepatometer® Vision (Lonza, N.C.), and viable cells are then adjusted to […] in DMEM. Compounds are first diluted to 2 μM with DMEM medium, and then aliquots of 125 μL of drug-containing medium are transferred to 96-well non-coated plates. Incubation is initiated by the addition of 125 μL of hepatocyte suspension to yield a total incubation volume of 250 μL. Final concentration of each compound is 1 μM, and final cell density is 0.5×10^6 cells/mL. Incubations are conducted in a humidified incubator at 37° C. Aliquots of 50 μL incubation medium are taken out at different time intervals (0, 60, 120 and 180 min), and immediately mixed with 100 μL of ice-cold acetonitrile containing 50 nM propranolol (internal standard). Samples are then centrifuged at 10,000×g for 10 min, and 80 μL of supernatant is taken out and diluted with 160 μL of water prior to LC/MS-MS analysis.
(§5) Human hepatocyte stability was assessed for exemplary compounds of Formula (I) according to the above procedures.

[3] = system: phosphorylation of SLP-76 (S376) by HPK-1 in human Jurkat cells; assay: pSLP76 assay (sandwich ELISA, anti-CD3 stimulated Jurkat cells); format: cell-based; conditions: Jurkat cells, anti-CD3 stimulation, read-out: pSLP76 IC50
Method: Phospho-SLP76 (S376) is detected by sandwich ELISA using an anti-pSLP76(S376) capture antibody and a biotinylated anti-SLP76 detection antibody.
Incubate Jurkat cells with varying concentrations of test compounds for 30 minutes in a humidified incubator at 37° C. and 5% CO2. Add anti-CD3 DynaBeads at a 4:1 bead:cell ratio. Stimulate cells in a humidified incubator at 37° C. and 5% CO2 for 10 minutes. Add cold lysis buffer and incubate on a shaker at 4° C. for 30 minutes. Transfer cell lysates to a pre-blocked ELISA plate coated with capture antibody. Incubate at room temperature shaking for 2 hours. Wash ELISA plate 5× with wash buffer and add 25 μl of biotinylated detection antibody at a final concentration of 0.5 μg/ml. Incubate at room temperature shaking for 1 hour. Wash ELISA plate 5× with wash buffer and add 25 μl of streptavidin enzyme conjugate at a final dilution of 1:8000. Incubate at room temperature shaking for 20 minutes. Wash ELISA plate 5× with wash buffer and add 25 μl of TMB substrate solution. Incubate at room temperature in the dark shaking for 20 minutes. Add 25 μl of STOP solution and read on SoftMax Pro for absorbance at 450 nm.
Exemplary compounds of Formula (I) were tested in pSLP76 assays.

[4] = target: HPK full length, T165E S171E (Homo sapiens (Human), UniProt Q92918, S171E/T165E); assay: HPK1-FL HTRF enzymatic assay ("HTRF"); format: biochemical; conditions: ATP 1 mM, read-out: HPK1 Ki
Method in brief: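 HTRF detection of phosphorylated biotin-SLP-76 used Eu-anti-pSLP76 antibody and SA-XL665, read after 60 min. The kinase reaction ran 60 min at […], following a 30-min compound preincubation with the full-length enzyme.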

[5] = Pharmacokinetic study in rat; format: in vivo, Sprague Dawley rat; conditions: 10% DMSO/60% PEG400/30% Water, Solution; for bioavailability: male, Sprague Dawley, plasma
Method: Pharmacokinetic Study in Rat: Male Sprague Dawley rats obtained from Lingchang/Vital River Laboratory Animal Technology Co., Ltd., (Shanghai/Beijing, P.R. China) with body weight ranging between 200 g to 300 g were use in the PK studies. Group of 3 rats were given a 1 mg/kg intravenous bolus (IV) dose of the test article in solution formulation, and another group of 3 rats were given a 2 or 5 mg/kg oral (PO) dose of test article as a 0.5% methylcellulose with 0.2% Tween 80 (MCT) suspension or as a solution. Blood samples (250 μL, per time point) were collected serially via the catheter in femoral artery at 0.033, 0.083, 0.25, 0.5, 1, 2, 4, 6, and 8 hours after IV or PO administration from each of the rat. Blood samples were collected into pre-chilled tubes containing Potassium (K2) EDTA and centrifuged at 3,200 g for 10 minutes at 2 to 8° C. within 1 hour of collection to harvest plasma. Plasma samples were stored at −70° C. until LC/MS/MS analysis. Concentration in each plasma sample was determined by a non-validated LC/MS/MS. Data is acquired using multiple reaction monitoring (MRM) with specific transitions monitored for each compound.
Following PO administration, percent bioavailability (% F) was determined for each animal by dividing the dose normalized area under the plasma concentration-time curve, extrapolated to infinity (AUCinf) obtained following each PO dose by the mean dose normalized AUCinf of the animals dosed by IV injection. All PK parameters are presented as mean±standard deviation (SD).
Pharmacokinetic studies were conducted in rat for exemplary compounds of Formula (I).

[6] = Permeability assay in gMDCKI cells; format: in vitro ADME, canine; conditions: dog, MDCK, apical-to-basolateral, 2-hour incubation, read-out: MDCK AB Papp
Method: as §1, §2, §3

[7] = Hepatocyte stability assay; format: in vitro ADME; conditions: cryopreserved human hepatocytes (10 donor pool, suspension), scaled hepatic clearance, read-out: HHep Clearance
Method: as §4, §5

Chain of HPK full length, T165E S171E (Q92918 whole entry T165E/S171E, looked up): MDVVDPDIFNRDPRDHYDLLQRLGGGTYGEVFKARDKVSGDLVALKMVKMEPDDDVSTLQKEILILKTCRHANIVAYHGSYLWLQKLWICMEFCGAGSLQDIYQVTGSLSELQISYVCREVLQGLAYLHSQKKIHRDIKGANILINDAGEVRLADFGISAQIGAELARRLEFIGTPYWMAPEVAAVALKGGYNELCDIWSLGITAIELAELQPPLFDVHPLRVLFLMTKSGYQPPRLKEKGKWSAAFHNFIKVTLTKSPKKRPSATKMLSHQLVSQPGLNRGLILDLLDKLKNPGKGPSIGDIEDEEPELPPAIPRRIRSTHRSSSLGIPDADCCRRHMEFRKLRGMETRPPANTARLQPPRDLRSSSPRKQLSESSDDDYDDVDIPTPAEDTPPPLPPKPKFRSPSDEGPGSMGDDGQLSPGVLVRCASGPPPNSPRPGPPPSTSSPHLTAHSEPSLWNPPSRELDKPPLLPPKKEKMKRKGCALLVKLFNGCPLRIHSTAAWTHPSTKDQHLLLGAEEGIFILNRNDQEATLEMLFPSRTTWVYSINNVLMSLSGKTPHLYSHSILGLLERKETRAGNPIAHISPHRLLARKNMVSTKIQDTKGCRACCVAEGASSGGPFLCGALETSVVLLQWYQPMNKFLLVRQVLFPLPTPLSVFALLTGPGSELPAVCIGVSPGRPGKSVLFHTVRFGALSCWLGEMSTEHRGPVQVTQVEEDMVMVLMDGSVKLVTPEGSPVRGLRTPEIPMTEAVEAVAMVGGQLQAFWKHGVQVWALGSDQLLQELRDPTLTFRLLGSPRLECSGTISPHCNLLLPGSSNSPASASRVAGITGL

SMILES | % IL-2 increase relative to untreated cells ([1]; assayed concentration 1.196 μM) [%] | MDCK AB Papp (gMDCKI cell line) [×10⁻⁶ cm/s] | HHep Clearance [2] [mL/min/kg] | IC50 [3] [nM] | Ki [4] [nM] | % F ([5]; PO 2 mg/kg) [%] | % IL-2 increase relative to untreated cells ([1]; assayed concentration 2.778 μM) [%] | Papp at 2 h, 10 μM [6] [×10⁻⁶ cm/s] | CLhep predicted at 1 μM [7] [mL/min/kg] | IC50 ([3]; Homo sapiens) [nM] | bioavailability ([5]; PO 2 mg/kg) [%] | bioavailability ([5]; PO 5 mg/kg) [%]
Cc1c(-c2cc3cc(NC(=O)O[C@H]4C[C@H](C(C)(C)O)C4)ncc3c(N)c2F)cnc2c1NCCO2 [Compound 574a, (1r,3r)-3-(2-Hydroxypropan-2-yl)cyclobutyl (8-amino-7-fluoro-6-(8-methyl-2,3-dihydro-1H-pyrido[2,3-b][1,4]oxazin-7-yl)isoquinolin-3-yl)carbamate] | 1634 | 12 | 8.3 | 32 | 0.02 | 16 |  |  |  |  |  | 
Cc1c(-c2cc3cc(NC(=O)N4CC(C)C4)ncc3c(N)c2F)cnc2c1NCCO2 [Compound 751, N-(8-Amino-7-fluoro-6-(8-methyl-2,3-dihydro-1H-pyrido[2,3-b][1,4]oxazin-7-yl)isoquinolin-3-yl)-3-methylazetidine-1-carboxamide] |  |  |  |  | 0.044 |  | 1363 | 11 | < 6.2 | 41 | 9.4 | 
Cc1c(-c2cc3cc(NC(=O)N4CC(C)(F)C4)ncc3c(N)c2F)cnc2c1NCCO2 [Compound 755, N-(8-Amino-7-fluoro-6-(8-methyl-2,3-dihydro-1H-pyrido[2,3-b][1,4]oxazin-7-yl)isoquinolin-3-yl)-3-fluoro-3-methylazetidine-1-carboxamide] |  |  |  |  | 0.09 |  | 1061 | 10 | 6.8 | 46 |  | 4
